The results in this text go back to patent US6617117B1, “MAP kinases: polypeptides, polynucleotides and uses thereof” (Medical Research Council, priority 1996, dated 2003).

The target of one test is T1, human SAPK3 (Homo sapiens, UniProt P53778).
T1 construct: made in house; host or cells: E. coli BL21(DE3)
T1 sequence (P53778 1-367): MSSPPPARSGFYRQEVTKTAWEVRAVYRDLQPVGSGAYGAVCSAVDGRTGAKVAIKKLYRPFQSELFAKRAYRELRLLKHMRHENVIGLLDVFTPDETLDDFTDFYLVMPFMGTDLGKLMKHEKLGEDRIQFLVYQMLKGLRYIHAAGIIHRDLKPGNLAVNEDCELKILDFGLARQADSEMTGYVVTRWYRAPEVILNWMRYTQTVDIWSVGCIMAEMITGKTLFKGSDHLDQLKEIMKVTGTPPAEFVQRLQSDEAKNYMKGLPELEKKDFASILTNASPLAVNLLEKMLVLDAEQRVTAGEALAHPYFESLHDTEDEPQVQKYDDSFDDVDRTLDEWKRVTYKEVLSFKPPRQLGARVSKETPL
Nature of the test: Inhibition of SAPK3, MBP phosphorylation (FIG. 9). It counts as biochemical. As for the experimental part: SAPK4, SAPK2a and SAPK2b were assayed routinely by the phosphorylation of MBP, exactly as described for SAPK3 in Example 4 and Cuenda et al, 1997. One unit of activity was that amount of enzyme which incorporated 1 nmol of phosphate into MBP in 1 min. SAPK4 activators were assayed by their ability to activate GST-SAPK4, as described for GST-SAPK3 in Example 4 and Cuenda et al, 1997. Control experiments were carried out in which GST-SAPK4 was omitted. One unit of SAPK4 activator was that amount which increased SAPK4 activity by I U/min. […] SAPK2a activators were assayed by their ability to activate the X. laevis homologue of SAPK2a (Meier et al, 1996). Activated SAPK2a itself was measured by the activation of GST-MAPKAP-K2(46400).
Protein kinase assays. SAPK3 was assayed routinely by the phosphorylation of MBP. SAPK3 (0.5 or 1 μM) in 40 μl of 25 mM Tris/HCl pH 7.5, 0.1 mM EGTA, 0.1 mM sodium orthovanadate, 1 μM PKI and 0.33 mg/ml MBP was incubated for 3 min at 30° C. before initiating the reaction with 10 μl of 50 mM magnesium acetate-0.5 mM [γ-^32P]ATP. After 20 min at 30° C. 40 μl aliquots were withdrawn, spotted on to 1.5×1.5 cm squares of Whatman P81 phosphocellulose paper and immersed in 75 mM phosphoric acid. After washing and drying the papers (Alessi et al, 1995b), ^32P radioactivity incorporated into MBP was measured. One unit of activity was that amount of enzyme which incorporated 1 nmol of phosphate into MBP in 1 min.

In another test the target is T2, SAPK4 (Homo sapiens, UniProt O15264).
T2 sequence (O15264 1-365): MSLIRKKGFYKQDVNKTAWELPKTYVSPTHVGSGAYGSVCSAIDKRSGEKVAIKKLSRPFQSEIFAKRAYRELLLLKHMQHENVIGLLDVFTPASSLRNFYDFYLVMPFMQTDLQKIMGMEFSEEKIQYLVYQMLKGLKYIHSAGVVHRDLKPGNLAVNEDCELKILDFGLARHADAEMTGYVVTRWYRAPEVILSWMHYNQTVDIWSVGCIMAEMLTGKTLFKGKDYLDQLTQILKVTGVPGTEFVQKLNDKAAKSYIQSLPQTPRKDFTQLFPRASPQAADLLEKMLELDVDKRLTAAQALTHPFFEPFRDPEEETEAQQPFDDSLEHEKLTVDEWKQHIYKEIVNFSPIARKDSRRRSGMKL
Description: Inhibition of SAPK4, MBP phosphorylation (FIG. 9). The class given is biochemical. More on the design: made in house; host or cells: E. coli BL21(DE3). As for the experimental part:
SAPK4 is assayed routinely by the phosphorylation of MBP. […] After washing and drying the papers (Alessi et al, 1995 Meth. Enzymol. 255, 279-290) ^32P radioactivity incorporated into MBP is measured.

Setting [1] is: dephosphorylated form, <0.1% of the activity of the phosphorylated form, data not shown.

In the case of `C[S+]([O-])c1ccc(-c2nc(-c3ccncc3)c(-c3ccc(F)cc3)[nH]2)cc1` (stereo not shown) [SB 203580], the “Inhibition of SAPK3” value at human SAPK3 (SAPK3 activated by SKK3 in vitro) is reported as “not inhibited”. The “Inhibition of dephosphorylated form of SAPK3” value at human SAPK3 (setting [1]) was “failed to inhibit”. The “Inhibition of SAPK4” value at SAPK4 (bacterially expressed SAPK4 activated by SKK3 in vitro) is “not inhibited”. In addition, the “Inhibition of dephosphorylated form of SAPK4” value on SAPK4 (setting [1]) is given as “failed to inhibit”.
